Experimental data taken from US11230548B2, “Prodrugs of fumarates and their use in treating various diseases” (Alkermes Pharma Ireland Limited, priority 2013, dated 2022).
Counter-ions that a name gives are not always drawn.

Assay: Aqueous chemical stability in phosphate buffer (HPLC, first-order decay)
Format: physicochemical
Details: half-life of the compound in buffer phosphate (100 mM), pH 8, 37° C., half-lives >360 min estimated from initial slope at low conversion (<10%)
Protocol: Stock solutions of the compounds in acetonitrile or acetonitrile/methanol were prepared at 20 mg/mL. and 20 μL, spiked into 3 mL of buffer phosphate (100 mM) and incubated at 37° C. Aliquots (50 μL) were sampled at different time points and diluted 20 fold with ammonium formate (pH 3.5)/acetonitrile. The diluted samples were analyzed by HPLC. The peak areas corresponding to the compounds were plotted against time and the data were fitted to a first-order mono-exponential decay where the rate constant and the half-life were determined (Table 2).

SMILES | pH 8 (t½, min)
CCN(CC)C(=O)COC(=O)/C=C/C(=O)OC [Reference Compound A, 2-(diethylamino)-2-oxoethyl methyl fumarate, reference compound] | 120 min
COC(=O)/C=C/C(=O)OCCN1CCC2(CC1)OCCO2 [Compound 17, 2-(1,4-dioxa-8-azaspiro[4.5]decan-8-yl)ethyl methyl fumarate hydrochloride] | 11.0 min
COC(=O)/C=C/C(=O)OCCN1CCOCC1 [Compound 16, Methyl (2-morpholinoethyl) fumarate hydrochloride] | 20.0 min
COC(=O)/C=C/C(=O)OCCS(C)(=O)=O [Compound 10, Methyl (2-(methyl sulfonyl)ethyl) fumarate] | 67.0 min
COC(=O)/C=C/C(=O)OCCN1CCS(=O)(=O)CC1 [Compound 11, 2-(1,1-dioxidothiomorpholino)ethyl methyl fumarate hydrochloride] | >240 min
COC(=O)/C=C/C(=O)OCC(C)(C)N(C)C [Compound 9, 2-(dimethylamino)-2-methylpropyl methyl fumarate hydrochloride] | 7.0 min
COC(=O)/C=C/C(=O)OCCN1CCSCC1 [Compound 7, Methyl (2-thiomorpholinoethyl) fumarate hydrochloride] | 26.0 min
COC(=O)/C=C/C(=O)OCCN(C)c1ccccc1 [Compound 12, Methyl (2-(methyl(phenyl)amino)ethyl) fumarate hydrochloride] | 396 min
COC(=O)/C=C/C(=O)OCCN(C)C [Compound 19, 2-(dimethylamino)ethyl methyl fumarate hydrochloride] | 6.0 min
CCN(CC)CCOC(=O)/C=C/C(=O)OC [Compound 20, 2-(diethylamino)ethyl methyl fumarate hydrochloride] | 5.0 min
COC(=O)/C=C/C(=O)OCCN1CCCCC1 [Compound 15, Methyl (2-(piperidin-1-yl)ethyl) fumarate hydrochloride] | 3.0 min
COC(=O)/C=C/C(=O)OCCN1CCCC1 [Compound 18, Methyl (2-(pyrrolidin-1-yl)ethyl) fumarate hydrochloride] | 5.0 min
COC(=O)/C=C/C(=O)OCCN1C(=O)CCC1=O [Compound 14, 2-(2,5-dioxopyrrolidin-1-yl)ethyl methyl fumarate] | 144 min
COC(=O)/C=C/C(=O)OC(C)CN(C)C (stereo not drawn) [Compound 6, 1-(dimethylamino)propan-2-yl methyl fumarate hydrochloride] | 2.0 min
COC(=O)/C=C/C(=O)OCCNc1ccccc1 [Compound 8, Methyl (2-(phenylamino)ethyl) fumarate hydrochloride] | 36.0 min
